The values that follow come from ChEMBL document CHEMBL1148405, “Prediction of ligand binding affinity and orientation of xenoestrogens to the estrogen receptor by molecular dynamics simulations and the linear interaction energy method” (J Med Chem, 2004).

For the test, the target named is Estrogen receptor (Ovis aries, UniProt P49885+Q9TU15). Nature of the test: Displacement of [3H]-estradiol (E2) from sheep uterine estrogen receptor. (In general: Loss of bound radioactivity is the signal in a displacement assay; it reports binding, not function.)
`Oc1ccc2ccc3c4ccccc4cc4ccc1c2c43` came in with a Kd of 1.1e-6 M l-1.

In turn, `CCC1Cc2cc(O)ccc2C2=C1c1ccc(O)cc1CC2CC` (stereo not given) came in with a Kd of 3e-9 M l-1. In the case of `Oc1ccc2ccc3c4ccccc4ccc3c2c1`, the Kd worked out at 4e-6 M l-1.

`O=c1c(-c2ccc(O)cc2)coc2cc(O)ccc12` [DAIDZEIN] displayed a Kd of 5.9e-6 M l-1.

As for `Brc1ccccc1-c1ccccc1Br`, the Kd worked out at 0.00016 M l-1. With `CC(=O)C1CCC2C3CCC4=CC(O)CCC4(C)C3CCC12C` (stereo not given), the Kd is above 0.0003 M l-1.

`Oc1ccc(C2COc3cc(O)c(O)cc3C2)cc1` (stereo not given) yielded a Kd of 0.000011 M l-1. On to `Oc1ccc2c(cc3ccc4cccc5ccc2c3c45)c1O`, for which the Kd was determined as 0.000014 M l-1. The figure for `Oc1ccc2c(ccc3c4ccccc4ccc23)c1O` is 8.8e-7 M l-1.

For `Brc1ccc(-c2ccc(Br)cc2)cc1`, the Kd is above 0.0003 M l-1.
